Assay results taken from patent publication US8202885B2, “Bridged six-membered ring compounds” (Actelion Pharmaceuticals Ltd., priority 2007, dated 2012).
Where “and” joins values, the source holds several entries; their conditions need not be identical. Equal entries are not always repeated.

Test system: human Cav3.1 Cav3.2 or Cav3.3 channel
Assay: In vitro assay T channel (FLIPR calcium fluorescence)
Format: cell-based
Conditions: HEK293 cells expressing human Cav3.1, Cav3.2 or Cav3.3; 10 mM Ca2+-induced fluo-4 fluorescence; determined up to 10 μM; read-out: T channel antagonistic activity IC50
Protocol: The T channel antagonistic activity (IC50 values) of the compounds of formula (I) is determined in accordance with the following experimental method and data are shown in Table 1.
Human embryonic kidney (HEK293) cells expressing the human Cav3.1 Cav3.2 or Cav3.3 channel, respectively, are grown in culture medium (DMEM containing 10% heat-inactivated fetal calf serum (FCS), 100 U/ml penicillin, 100 μg/ml streptomycin and 1 mg/ml G418). The cells are seeded at 20.000 cells/well into 384-well black clear bottom sterile plates (poly-L-lysine-coated, Becton Dickinson). The seeded plates are incubated overnight at 37° C. in 5% CO2. The Ca^2+ solution is prepared as 100 mM stock solution in 100 mM tetraethylammoniumchloride (TEA-chloride), 50 mM HEPES, 2.5 mM CaCl2, 5 mM KCl, 1 mM MgCl2, adjusted to pH 7.2 with TEA-hydroxide, for use in the assay at a final concentration of 10 mM. Antagonists are prepared as 10 mM stock solutions in DMSO, then diluted in 384 w plates first in DMSO, then in 100 mM TEA-chloride, 50 mM HEPES, 2.5 mM CaCl2, 5 mM KCl, 1 mM MgCl2, adjusted to pH 7.2 with TEA-hydroxide, to obtain 9× stocks. On the day of the assay, 25 μl of staining buffer (HBSS containing 20 mM HEPES, 0.375 g/l NaHCO3 and 3 μM of the fluorescent calcium indicator fluo-4 AM (1 mM stock solution in DMSO, containing 10% pluronic) is added to each well of the seeded plate. The 384-well cell-plates are incubated for 60 min at 37° C. in 5% CO2 followed by washing with 2×50 μl per well using HBSS containing 0.1% BSA, 20 mM HEPES, 0.375 g/l NaHCO3, leaving 50 […] of this buffer for equilibration at room temperature (30-60 min). Within the Fluorescent Imaging Plate Reader (FLIPR, Molecular Devices), antagonists are added to the plate in a volume of 6.25 μl/well, incubated for 3 min, and finally 6.25 […] of Ca^2+ solution is added. Fluorescence is measured for each well at 2 second intervals for 8 minutes, and the area under the curve of each fluorescence peak is compared to the area of the fluorescence peak induced by 10 mM Ca^2+ with vehicle in place of antagonist. For each antagonist, the IC50 value (the concentration (in nM) of compound needed to inhibit 50% of the Ca^2+-induced fluorescence response) up to 10 μM is determined.

Structure (SMILES)	IC50
CC(C)C(=O)OC1(CCN(C)CCCc2nc3ccccc3[nH]2)CC2CCC1CC2c1ccccc1 (racemic) [Example 73A, rac-Isobutyric acid (1R*,2R*,4R*,5S*)-2-(2-{[3-(1H-benzoimidazol-2-yl)-propyl]-methyl-amino}-ethyl)-5-phenyl-bicyclo[2.2.2]oct-2-yl ester and rac-isobutyric acid (1R*,2R*,4R*,5R*)-2-(2-{[3-(1H-benzoimidazol-2-yl)-propyl]-methyl-amino}-ethyl)-5-phenyl-bicyclo[2.2.2]oct-2-yl ester]	1.75 µM and 2 µM
COc1ccc(C)c2nc(CCCN(C)CC[C@]3(O)C[C@H]4CC[C@@H]3C=C4c3ccccc3)[nH]c12 (relative stereo) [Example 30, rac-(1R*,2R*,4R*)-2-(2-{[3-(7-Methoxy-4-methyl-1H-benzoimidazol-2-yl)-propyl]-methyl-amino}-ethyl)-5-phenyl-bicyclo[2.2.2]oct-5-en-2-ol]	1.78 µM
CC(C)C(=O)O[C@@]1(CCN(C)CCCc2cnc3occc3c2)C[C@H]2CC[C@@H]1C=C2c1ccccc1 (relative stereo) [Example 41A, rac-Isobutyric acid (1R*,2R*,4R*)-2-{2-[(3-furo[2,3-b]pyridin-5-yl-propyl)-methyl-amino]-ethyl}-5-phenyl-bicyclo[2.2.2]oct-5-en-2-yl ester]	8.26 µM
CN(CCCc1nc2ccccc2[nH]1)CC[C@]1(O)C[C@H]2CC[C@@H]1C[C@]21OCc2ccccc21 (relative stereo) [Example 80, rac-(1R*,2S*,4R*,5R*)-5-(2-{[3-(1H-Benzoimidazol-2-yl)-propyl]-methyl-amino}-ethyl)-3′H-spiro(bicyclo[2.2.2]octane-2,1′-isobenzofuran)-5-ol]	3.71 µM
COc1cccc2nc(CCN(C)CC[C@]3(OC(=O)C(C)C)C[C@H]4CC[C@@H]3C=C4c3ccccc3)[nH]c12 (relative stereo) [Example 32A, rac-Isobutyric acid (1R*,2R*,4R*)-2-(2-{[2-(7-methoxy-1H-benzoimidazol-2-yl)-ethyl]-methyl-amino}-ethyl)-5-phenyl-bicyclo[2.2.2]oct-5-en-2-yl ester]	3.39 µM
CCOc1ccc(CCCN(C)CC[C@]2(O)C[C@H]3CC[C@@H]2C=C3c2ccccc2)cc1OCC (relative stereo) [Example 40, rac-(1R*,2R*,4R*)-2-(2-{[3-(3,4-Diethoxy-phenyl)-propyl]-methyl-amino}-ethyl)-5-phenyl-bicyclo[2.2.2]oct-5-en-2-ol]	3.33 µM
CC(C)C(=O)O[C@@]1(CCN(C)CCCc2nc(-c3ccccc3)c(-c3ccccc3)[nH]2)C[C@H]2CC[C@@H]1C=C2c1ccccc1 (relative stereo) [Example 47A, rac-Isobutyric acid (1R*,2R*,4R*)-2-(2-{[3-(4,5-diphenyl-1H-imidazol-2-yl)-propyl]-methyl-amino}-ethyl)-5-phenyl-bicyclo[2.2.2]oct-5-en-2-yl ester]	8.03 µM
COc1cccc2[nH]c(CCCN(C)CC[C@]3(OC(=O)CC(F)(F)F)C[C@H]4CCC[C@@H]3C=C4c3ccccc3)nc12 (relative stereo) [Example 36B, rac-3,3,3-Trifluoro-propionic acid (1R*,5R*,6R*)-6-(2-{[3-(4-methoxy-1H-benzoimidazol-2-yl)-propyl]-methyl-amino}-ethyl)-8-phenyl-bicyclo[3.2.2]non-8-en-6-yl ester]	2.45 µM
CC(C)C(=O)OC1(CCN(C)CCCc2nc3ccccc3[nH]2)CC2CCC1C=C2c1ccccc1 [Example 12A, Isobutyric acid (1R,2R,4R)-2-(2-{[3-(1H-benzoimidazol-2-yl)-propyl]-methyl-amino}-ethyl)-5-phenyl-bicyclo[2.2.2]oct-5-en-2-yl ester or isobutyric acid (1S,2S,4S)-2-(2-{[3-(1H-benzoimidazol-2-yl)-propyl]-methyl-amino}-ethyl)-5-phenyl-bicyclo[2.2.2]oct-5-en-2-yl ester]	4.23 µM
CC(=O)Nc1cccc2[nH]c(CCCN(C)CC[C@]3(OC(=O)C(C)C)C[C@H]4CC[C@@H]3C=C4c3ccccc3)nc12 (relative stereo) [Example 56A, rac-Isobutyric acid (1R*,2R*,4R*)-2-(2-{[3-(4-acetylamino-1H-benzoimidazol-2-yl)-propyl]-methyl-amino}-ethyl)-5-phenyl-bicyclo[2.2.2]oct-5-en-2-yl ester]	2.52 µM
CN(CCCc1cccnc1)CC[C@]1(O)C[C@H]2CC[C@@H]1C=C2c1ccccc1 (relative stereo) [Example 46, rac-(1R*,2R*,4R*)-2-{2-[Methyl-(3-pyridin-3-yl-propyl)-amino]-ethyl}-5-phenyl-bicyclo[2.2.2]oct-5-en-2-ol]	> 10 µM
COc1ccc2[nH]c(CCCN(C)CC[C@]3(OC(=O)C(C)C)C[C@H]4CC[C@@H]3C=C4c3ccccc3)nc2c1 (relative stereo) [Example 29A, rac-Isobutyric acid (1R*,2R*,4R*)-2-(2-{[3-(5-methoxy-1H-benzoimidazol-2-yl)-propyl]-methyl-amino}-ethyl)-5-phenyl-bicyclo[2.2.2]oct-5-en-2-yl ester]	4.51 µM
CN(CCc1nc2ccccc2[nH]1)CC[C@]1(O)C[C@H]2CC[C@@H]1C=C2c1ccccc1 (relative stereo) [Example 13, rac-(1R*,2R*,4R*)-2-(2-{[2-(1H-Benzoimidazol-2-yl)-ethyl]-methyl-amino}-ethyl)-5-phenyl-bicyclo[2.2.2]oct-5-en-2-ol]	2.73 µM
CC(C)C(=O)O[C@]1(CCN(C)CCCc2nc3ccccc3[nH]2)C[C@@H]2CC[C@H]1CN2c1ccccc1 [Example 74A, Isobutyric acid (1S,4S,5R)-5-(2-{[3-(1H-benzoimidazol-2-yl)-propyl]-methyl-amino}-ethyl)-2-phenyl-2-aza-bicyclo[2.2.2]oct-5-yl ester]	8.6 µM
COCCOc1cccc2[nH]c(CCCN(C)CC[C@]3(OC(=O)C(C)C)C[C@H]4CC[C@@H]3C=C4c3ccccc3)nc12 (relative stereo) [Example 63A, rac-Isobutyric acid (1R*,2R*,4R*)-2-[2-({3-[4-(2-methoxy-ethoxy)-1H-benzoimidazol-2-yl]-propyl}-methyl-amino)-ethyl]-5-phenyl-bicyclo[2.2.2]oct-5-en-2-yl ester]	1.44 µM
CC(C)C(=O)O[C@@]1(CCN(C)CCCNC(=O)C(C)(C)C)C[C@H]2CC[C@@H]1C=C2c1ccccc1 (relative stereo) [Example 45A, rac-Isobutyric acid (1R*,2R*,4R*)-2-(2-{[3-(2,2-dimethyl-propionylamino)-propyl]-methyl-amino}-ethyl)-5-phenyl-bicyclo[2.2.2]oct-5-en-2-yl ester]	1.7 µM
Cc1cc2cc(CCCN(C)CC[C@]3(OC(=O)C(C)C)C[C@H]4CC[C@@H]3C=C4c3ccccc3)cnc2o1 (relative stereo) [Example 42A, rac-Isobutyric acid (1R*,2R*,4R*)-2-(2-{methyl-[3-(2-methyl-furo[2,3-b]pyridin-5-yl)-propyl]-amino}-ethyl)-5-phenyl-bicyclo[2.2.2]oct-5-en-2-yl ester]	> 10 µM
COc1cccc2[nH]c(CCCN(C)CC[C@]3(O)C[C@H]4CC[C@@H]3C=C4c3ccccc3)nc12 (relative stereo) [Example 26, rac-(1R*,2R*,4R*)-2-(2-{[3-(4-Methoxy-1H-benzoimidazol-2-yl)-propyl]-methyl-amino}-ethyl)-5-phenyl-bicyclo[2.2.2]oct-5-en-2-ol]	> 10 µM
CCOc1cccc2nc(CCCN(C)CC[C@]3(O)C[C@H]4CC[C@@H]3C=C4c3ccccc3)[nH]c12 (relative stereo) [Example 31, rac-(1R*,2R*,4R*)-2-(2-{[3-(7-Ethoxy-1H-benzoimidazol-2-yl)-propyl]-methyl-amino}-ethyl)-5-phenyl-bicyclo[2.2.2]oct-5-en-2-ol]	2.58 µM
COCC(C)(COC)C(=O)N(C)CCCN(C)CC[C@]1(OC(=O)C(C)C)C[C@H]2CC[C@@H]1C=C2c1ccccc1 (relative stereo) [Example 51A, rac-Isobutyric acid (1R*,2R*,4R*)-2-[2-({3-[(3-methoxy-2-methoxymethyl-2-methyl-propionyl)-methyl-amino]-propyl}-methyl-amino)-ethyl]-5-phenyl-bicyclo[2.2.2]oct-5-en-2-yl ester]	4.43 µM
